In brackets after ≈: the same amount, converted by molar mass. Like-named read-outs stand apart in the source and are kept apart here.
What was measured:
[1] = tested on: HCT-116 human colon cancer cells (p53 wild type); assay: In vitro antiproliferative activity, MTS assay; type: cell-based; settings: HCT-116, 72 h incubation, MTS, read-out: HCT-116 IC50
Experimental: The antiproliferative activity of all of the compounds was examined against the human colon cancer (HCT-116) cell line using an MTS assay. The HCT-116 p53 wild type cell line was chosen on the basis of our former experience and some results on the activity of quinoline-based thiosemicarbazones that was published recently. Namely, compounds 4a–l have been tested previously for their wide-ranging anticancer activity. The antiproliferative activity of the compounds evaluated was assessed using Doxorubicin as a reference compound. In general, quinoline-based thiosemicarbazones 4 seem to have a much better anticancer activity than halogenophenyl compounds 3. Thus, the quinoline nucleus can be defined as being crucial for antiproliferative activity. A more detailed analysis of the anticancer activity of quinoline-based thiosemicarbazone is available. […] Nevertheless, some more general conclusions can be drawn from the gathered data. […] The free amino group or substitution pattern with small substituents such as methyl or ethyl are favorable for activity. According to our former results the chelating ability of the compounds may be one of the prerequisites of the antiproliferative activity. In this study we have measured the UV-VIS spectra of the compounds in presence of various concentration of Fe^3+ cations to observe its chelating potency (supplementary material). […] However as 4j give also two points at 330 and 385 nm, iron chelating ability should be regarded only as one of the factor influencing the biological activity.
The human colon cancer cell line HCT116 with the wild type p53 gene (p53^+/+) were obtained from Maria Sklodowska-Curie Memorial Cancer Center in Gliwice, Poland. Briefly, the cells were seeded in 96-well plates (3 × 10^3 cells/well) in cellular proliferation assays 24 h before the addition of the chelators. The assay was performed following a 72 h incubation with varying concentrations of the agents. Each compound was tested in triplicate in a single experiment with each experiment being repeated 3 times. After 72 h incubation with the compounds being investigated, 20 µL of MTS solution was added to each well (100 µL) and incubated for 1 h at 37 °C. The optical densities of the samples were analyzed at 490 nm. Results were expressed as a percentage of the control. The inhibitory concentration (IC50) was defined as the compound concentration necessary to reduce the absorbance to 50% of the untreated control.

Candida glabrata 20/I = assay: In vitro antifungal susceptibility, broth microdilution; type: cell-based; settings: Nakaseomyces glabratus, read-out: MIC (IC80) CG

SMILES: CN(C)C(=S)N/N=C/c1ccc(Cl)c(Cl)c1 [Compound 3h, (E)-2-(3,4-Dichlorobenzylidene)-N,N-dimethylhydrazinecarbothioamide]
- IC50 [1]: 47 ± 1.3 µM
- MIC (Candida glabrata 20/I; 24 h): 500 µM (≈ 138 µg/mL)
- MIC (Candida glabrata 20/I; 48 h): 500 µM (≈ 138 µg/mL)

SMILES: NC(=S)N/N=C/c1ccc(Br)cc1 [Compound 3k, (E)-2-(4-Bromobenzylidene)hydrazinecarbothioamide]
- IC50 [1]: > 60 µM
- MIC (Candida glabrata 20/I; 24 h): > 500 µM
- MIC (Candida glabrata 20/I; 48 h): > 500 µM

SMILES: CN(C)C(=S)N/N=C/c1ccc(Br)cc1 [Compound 3m, (E)-2-(4-bromobenzylidene)-N,N-dimethylhydrazinecarbothioamide]
- IC50 [1]: 47.5 ± 2.4 µM
- MIC (Candida glabrata 20/I; 24 h): > 500 µM
- MIC (Candida glabrata 20/I; 48 h): > 500 µM

Source: paper PMC6268061, “Investigation of the Biological Properties of (Hetero)Aromatic Thiosemicarbazones” (Molecules, 2012)
